Measured values published in ChEMBL document CHEMBL4002566, “S-substituted 3,5-dinitrophenyl 1,3,4-oxadiazole-2-thiols and tetrazole-5-thiols as highly efficient antitubercular agents” (Eur J Med Chem, 2017).

Columns and labels:
Aspergillus fumigatus [1] = experiment: Antifungal activity against Aspergillus fumigatus 231 after 24 hrs by broth microdilution method; type: functional; details: Aspergillus fumigatus, 231, 24 h
Nakaseomyces glabratus [2] = experiment: Antifungal activity against Candida glabrata 20/I after 24 hrs by broth microdilution method; type: functional
Lichtheimia corymbifera [3] = experiment: Antifungal activity against Absidia corymbifera 272 after 24 hrs by broth microdilution method; type: functional; details: Lichtheimia corymbifera, 272, 24 h
[4] = tested on: Trichophyton mentagrophytes; experiment: Antifungal activity against Trichophyton mentagrophytes 445 after 72 hrs by broth microdilution method; type: functional; details: Trichophyton mentagrophytes, 445, 72 h
Trichosporon asahii [5] = experiment: Antifungal activity against Trichosporon asahii 1188 after 24 hrs by broth microdilution method; type: functional; details: Trichosporon asahii, 1188, 24 h
Pichia kudriavzevii [6] = experiment: Antifungal activity against Candida krusei E28 after 24 hrs by broth microdilution method; type: functional; details: E28, 24 h
Candida tropicalis [7] = experiment: Antifungal activity against Candida tropicalis 156 after 24 hrs by broth microdilution method; type: functional; details: Candida tropicalis, 156, 24 h
Candida albicans [8] = experiment: Antifungal activity against Candida albicans ATCC 44859 after 24 hrs by broth microdilution method; type: functional; details: ATCC 44859, 24 h
Escherichia coli [9] = experiment: Antibacterial activity against Escherichia coli ATCC 8739 after 48 hrs by broth microdilution method; type: functional; details: ATCC 8739, 48 h
Klebsiella pneumoniae [10] = experiment: Antibacterial activity against extended spectrum beta-lactamase producing Klebsiella pneumoniae HK14368/08 after 24 hrs by broth microdilution method; type: functional; details: HK14368/08, 24 h
[11] = Selectivity index, ratio of IC50 for human HepG2 cells to MIC for Mycobacterium tuberculosis; type: toxicity; details: read-out: Selectivity Index
Escherichia coli [12] = experiment: Antibacterial activity against Escherichia coli ATCC 8739 after 24 hrs by broth microdilution method; type: functional; details: ATCC 8739, 24 h
[13] = Cytotoxicity against human HepG2 cells assessed as cell viability at 30 uM after 48 hrs by MTS assay relative to control; type: cell-based; details: read-out: Activity
[14] = tested on: Trichophyton mentagrophytes; experiment: Antifungal activity against Trichophyton mentagrophytes 445 after 120 hrs by broth microdilution method; type: functional; details: Trichophyton mentagrophytes, 445, 120 h
[15] = tested on: Staphylococcus epidermidis; experiment: Antibacterial activity against Staphylococcus epidermidis HK6996/08 after 48 hrs by broth microdilution method; type: functional; details: HK6996/08, 48 h
Mycobacterium kansasii [16] = experiment: Antimycobacterial activity against Mycobacterium kansasii CNCTC My 235/80 after 7 days by micromethod; type: functional; details: CNCTC My 235/80, 168 h
HepG2 = experiment: Cytotoxicity against human HepG2 cells assessed as cell viability after 48 hrs by MTS assay; type: cell-based; details: HepG2, 48 h
Staphylococcus aureus [17] = experiment: Antibacterial activity against Staphylococcus aureus ATCC 6538 after 48 hrs by broth microdilution method; type: functional; details: ATCC 6538, 48 h
MDCK = experiment: Cytotoxicity against MDCK cells assessed as cell viability after 48 hrs by MTS assay; type: cell-based; details: Canis lupus familiaris
Candida albicans [18] = experiment: Antifungal activity against Candida albicans ATCC 44859 after 48 hrs by broth microdilution method; type: functional; details: ATCC 44859, 48 h
Enterococcus sp. [19] = experiment: Antibacterial activity against Enterococcus sp. HK14365/08 after 48 hrs by broth microdilution method; type: functional; details: HK14365/08, 48 h
Staphylococcus aureus [20] = experiment: Antibacterial activity against methicillin-resistant Staphylococcus aureus HK5996/08 after 48 hrs by broth microdilution method; type: functional; details: HK5996/08, 48 h
Candida tropicalis [21] = experiment: Antifungal activity against Candida tropicalis 156 after 48 hrs by broth microdilution method; type: functional; details: Candida tropicalis, 156, 48 h
[22] = tested on: Mycobacterium tuberculosis; experiment: Antimycobacterial activity against Mycobacterium tuberculosis CNCTC My 331/88 after 21 days by micromethod; type: functional; details: CNCTC My 331/88, 504 h
Nakaseomyces glabratus [23] = experiment: Antifungal activity against Candida glabrata 20/I after 48 hrs by broth microdilution method; type: functional
[24] = Cytotoxicity against human A431 cells assessed as cell viability at 30 uM after 48 hrs by MTS assay relative to control; type: cell-based, A-431; details: read-out: Activity
Mycobacterium kansasii [25] = experiment: Antimycobacterial activity against Mycobacterium kansasii 6509/96 clinical isolate after 7 days by micromethod; type: functional; details: 6509/96, 168 h
Klebsiella pneumoniae [26] = experiment: Antibacterial activity against Klebsiella pneumoniae HK11750/08 after 48 hrs by broth microdilution method; type: functional; details: HK11750/08, 48 h
Mycobacterium kansasii [27] = experiment: Antimycobacterial activity against Mycobacterium kansasii 6509/96 clinical isolate after 14 days by micromethod; type: functional; details: 6509/96, 336 h
Huh-7 = experiment: Cytotoxicity against human HuH7 cells assessed as cell viability after 48 hrs by MTS assay; type: cell-based; details: Huh-7, 48 h
Lichtheimia corymbifera [28] = experiment: Antifungal activity against Absidia corymbifera 272 after 48 hrs by broth microdilution method; type: functional; details: Lichtheimia corymbifera, 272, 48 h
Staphylococcus aureus [29] = experiment: Antibacterial activity against methicillin-resistant Staphylococcus aureus HK5996/08 after 24 hrs by broth microdilution method; type: functional; details: HK5996/08, 24 h
Pseudomonas aeruginosa [30] = experiment: Antibacterial activity against Pseudomonas aeruginosa ATCC 9027 after 24 hrs by broth microdilution method; type: functional; details: ATCC 9027, 24 h
[31] = tested on: Mycobacterium tuberculosis; experiment: Antimycobacterial activity against Mycobacterium tuberculosis CNCTC My 331/88 after 14 days by micromethod; type: functional; details: CNCTC My 331/88, 336 h
Mycobacterium kansasii [32] = experiment: Antimycobacterial activity against Mycobacterium kansasii CNCTC My 235/80 after 21 days by micromethod; type: functional; details: CNCTC My 235/80, 504 h
A-431 = experiment: Cytotoxicity against human A431 cells assessed as cell viability after 48 hrs by MTS assay; type: cell-based; details: A-431, 48 h
Enterococcus sp. [33] = experiment: Antibacterial activity against Enterococcus sp. HK14365/08 after 24 hrs by broth microdilution method; type: functional; details: HK14365/08, 24 h
Pichia kudriavzevii [34] = experiment: Antifungal activity against Candida krusei E28 after 48 hrs by broth microdilution method; type: functional; details: E28, 48 h
Pseudomonas aeruginosa [35] = experiment: Antibacterial activity against Pseudomonas aeruginosa ATCC 9027 after 48 hrs by broth microdilution method; type: functional; details: ATCC 9027, 48 h
[36] = tested on: Staphylococcus epidermidis; experiment: Antibacterial activity against Staphylococcus epidermidis HK6996/08 after 24 hrs by broth microdilution method; type: functional; details: HK6996/08, 24 h
Klebsiella pneumoniae [37] = experiment: Antibacterial activity against extended spectrum beta-lactamase producing Klebsiella pneumoniae HK14368/08 after 48 hrs by broth microdilution method; type: functional; details: HK14368/08, 48 h
Trichosporon asahii [38] = experiment: Antifungal activity against Trichosporon asahii 1188 after 48 hrs by broth microdilution method; type: functional; details: Trichosporon asahii, 1188, 48 h
Aspergillus fumigatus [39] = experiment: Antifungal activity against Aspergillus fumigatus 231 after 48 hrs by broth microdilution method; type: functional; details: Aspergillus fumigatus, 231, 48 h
[40] = Cytotoxicity against MDCK cells assessed as cell viability at 30 uM after 48 hrs by MTS assay relative to control; type: cell-based, Canis lupus familiaris; details: dog, read-out: Activity
Mycobacterium kansasii [41] = experiment: Antimycobacterial activity against Mycobacterium kansasii CNCTC My 235/80 after 14 days by micromethod; type: functional; details: CNCTC My 235/80, 336 h
[42] = Cytotoxicity against human HuH7 cells assessed as cell viability at 30 uM after 48 hrs by MTS assay relative to control; type: cell-based, Huh-7; details: read-out: Activity
Staphylococcus aureus [43] = experiment: Antibacterial activity against Staphylococcus aureus ATCC 6538 after 24 hrs by broth microdilution method; type: functional; details: ATCC 6538, 24 h
Mycobacterium kansasii [44] = experiment: Antimycobacterial activity against Mycobacterium kansasii 6509/96 clinical isolate after 21 days by micromethod; type: functional; details: 6509/96, 504 h
Klebsiella pneumoniae [45] = experiment: Antibacterial activity against Klebsiella pneumoniae HK11750/08 after 24 hrs by broth microdilution method; type: functional; details: HK11750/08, 24 h
Mycobacterium avium [46] = experiment: Antimycobacterial activity against Mycobacterium avium CNCTC My 330/88 after 21 days by micromethod; type: functional; details: CNCTC My 330/88, 504 h
Mycobacterium avium [47] = experiment: Antimycobacterial activity against Mycobacterium avium CNCTC My 330/88 after 14 days by micromethod; type: functional; details: CNCTC My 330/88, 336 h

C[C@@H]1[C@H](O)[C@@H](C)/C=C/C=C/C=C/C=C/C=C/C=C/C=C/[C@H](O[C@@H]2O[C@H](C)[C@@H](O)[C@H](N)[C@@H]2O)C[C@@H]2O[C@](O)(C[C@@H](O)C[C@@H](O)[C@H](O)CC[C@@H](O)C[C@@H](O)CC(=O)O[C@H]1C)C[C@H](O)[C@H]2C(=O)O [AMPHOTERICIN B]
0.27 µM: MIC (Trichosporon asahii [5])
1 µM: MIC (Lichtheimia corymbifera [3]) | MIC (Pichia kudriavzevii [6])
0.54 µM: MIC (Aspergillus fumigatus [1]) | MIC (Nakaseomyces glabratus [2]) | MIC [4] | MIC (Candida tropicalis [7]) | MIC (Candida albicans [8])

O=[N+]([O-])c1cc(-c2nnc(SCc3ccc(Cl)cc3)o2)cc([N+](=O)[O-])c1
110%: viability at 48 h, 30 µM [40]
> 1000: selectivity ratio [11]
0.125 µM: MIC (Mycobacterium kansasii [32])
0.06 µM: MIC [22] | MIC (Mycobacterium kansasii [41])
> 125 µM: MIC (Aspergillus fumigatus [1]) | MIC (Nakaseomyces glabratus [2]) | MIC [14] | MIC (Lichtheimia corymbifera [3]) | MIC [4] | MIC (Candida albicans [18]) | MIC (Trichosporon asahii [5]) | MIC (Candida tropicalis [21]) | MIC (Pichia kudriavzevii [6]) | MIC (Nakaseomyces glabratus [23]) | MIC (Lichtheimia corymbifera [28]) | MIC (Pichia kudriavzevii [34]) | MIC (Candida tropicalis [7]) | MIC (Trichosporon asahii [38]) | MIC (Aspergillus fumigatus [39]) | MIC (Candida albicans [8])
100%: viability at 48 h, 30 µM [24]
> 500 µM: MIC (Escherichia coli [9]) | MIC (Klebsiella pneumoniae [10]) | MIC (Escherichia coli [12]) | MIC [15] | MIC (Staphylococcus aureus [17]) | MIC (Enterococcus sp. [19]) | MIC (Staphylococcus aureus [20]) | MIC (Klebsiella pneumoniae [26]) | MIC (Staphylococcus aureus [29]) | MIC (Pseudomonas aeruginosa [30]) | MIC (Enterococcus sp. [33]) | MIC (Pseudomonas aeruginosa [35]) | MIC [36] | MIC (Klebsiella pneumoniae [37]) | MIC (Staphylococcus aureus [43]) | MIC (Klebsiella pneumoniae [45])
0.03 µM: MIC (Mycobacterium kansasii [16]) | MIC (Mycobacterium kansasii [25]) | MIC (Mycobacterium kansasii [27]) | MIC [31] | MIC (Mycobacterium kansasii [44])
126%: viability at 48 h, 30 µM [13] | viability at 48 h, 30 µM [42]
> 30 µM: IC50 (HepG2) | IC50 (MDCK) | IC50 (Huh-7) | IC50 (A-431)

O=[N+]([O-])c1cc(-c2nnc(SCc3ccc(Br)cc3)o2)cc([N+](=O)[O-])c1
0.03 µM: MIC (Mycobacterium kansasii [16]) | MIC (Mycobacterium kansasii [25]) | MIC (Mycobacterium kansasii [27]) | MIC [31] | MIC (Mycobacterium kansasii [41])
99%: viability at 48 h, 30 µM [24]
0.06 µM: MIC [22] | MIC (Mycobacterium kansasii [32]) | MIC (Mycobacterium kansasii [44])
113%: viability at 48 h, 30 µM [13]
143%: viability at 48 h, 30 µM [42]
> 125 µM: MIC (Escherichia coli [9]) | MIC (Klebsiella pneumoniae [10]) | MIC (Aspergillus fumigatus [1]) | MIC (Nakaseomyces glabratus [2]) | MIC (Escherichia coli [12]) | MIC [14] | MIC [15] | MIC (Staphylococcus aureus [17]) | MIC (Lichtheimia corymbifera [3]) | MIC [4] | MIC (Candida albicans [18]) | MIC (Enterococcus sp. [19]) | MIC (Staphylococcus aureus [20]) | MIC (Trichosporon asahii [5]) | MIC (Candida tropicalis [21]) | MIC (Pichia kudriavzevii [6]) | MIC (Nakaseomyces glabratus [23]) | MIC (Klebsiella pneumoniae [26]) | MIC (Lichtheimia corymbifera [28]) | MIC (Staphylococcus aureus [29]) | MIC (Pseudomonas aeruginosa [30]) | MIC (Enterococcus sp. [33]) | MIC (Pichia kudriavzevii [34]) | MIC (Candida tropicalis [7]) | MIC (Pseudomonas aeruginosa [35]) | MIC [36] | MIC (Klebsiella pneumoniae [37]) | MIC (Trichosporon asahii [38]) | MIC (Aspergillus fumigatus [39]) | MIC (Candida albicans [8]) | MIC (Staphylococcus aureus [43]) | MIC (Klebsiella pneumoniae [45])
> 30 µM: IC50 (HepG2) | IC50 (MDCK) | IC50 (Huh-7) | IC50 (A-431)
114%: viability at 48 h, 30 µM [40]
125 µM: MIC (Mycobacterium avium [46]) | MIC (Mycobacterium avium [47])
> 1000: selectivity ratio [11]
